Data as given in ChEMBL document CHEMBL1150788, “In vitro susceptibility of Sporothrix schenckii to six antifungal agents determined using three different methods” (2007).

Assays:
Type in all cases: functional
Sporothrix schenckii [1] = test: Antifungal activity against Sporothrix schenckii PJRC002 isolate from cutaneous-lymphatic sporotrichosis patient after 72 hrs by Sensititre YeastOne method
Sporothrix schenckii [2] = test: Antifungal activity against Sporothrix schenckii MRSS4 isolate from cutaneous-lymphatic sporotrichosis patient after 72 hrs by Sensititre YeastOne method
Sporothrix schenckii [3] = test: Antifungal activity against Sporothrix schenckii P25013 isolate from cutaneous-lymphatic sporotrichosis patient after 72 hrs by Sensititre YeastOne method
Sporothrix schenckii [4] = test: Antifungal activity against Sporothrix schenckii P30915 isolate from cutaneous-lymphatic sporotrichosis patient after 72 hrs by Sensititre YeastOne method
Sporothrix schenckii [5] = test: Antifungal activity against Sporothrix schenckii P0019 isolate from cutaneous-lymphatic sporotrichosis patient after 72 hrs by Sensititre YeastOne method
Sporothrix schenckii [6] = test: Antifungal activity against Sporothrix schenckii P10012 isolate from cutaneous-lymphatic sporotrichosis patient after 72 hrs by Sensititre YeastOne method
Sporothrix schenckii [7] = test: Antifungal activity against Sporothrix schenckii P24255 isolate from cutaneous-lymphatic sporotrichosis patient after 72 hrs by Sensititre YeastOne method
Sporothrix schenckii [8] = test: Antifungal activity against Sporothrix schenckii P3287 isolate from cutaneous-lymphatic sporotrichosis patient after 72 hrs by Sensititre YeastOne method
Sporothrix schenckii [9] = test: Antifungal activity against Sporothrix schenckii P1621 isolate from cutaneous-lymphatic sporotrichosis patient after 72 hrs by Sensititre YeastOne method
Sporothrix schenckii [10] = test: Antifungal activity against Sporothrix schenckii P24223 isolate from cutaneous-lymphatic sporotrichosis patient after 72 hrs by Sensititre YeastOne method
Sporothrix schenckii [11] = test: Antifungal activity against Sporothrix schenckii P14036 isolate from cutaneous-lymphatic sporotrichosis patient after 72 hrs by Sensititre YeastOne method
Sporothrix schenckii [12] = test: Antifungal activity against Sporothrix schenckii P30019 isolate from cutaneous-lymphatic sporotrichosis patient after 72 hrs by Sensititre YeastOne method
Sporothrix schenckii [13] = test: Antifungal activity against Sporothrix schenckii SSA29 isolate from cutaneous-lymphatic sporotrichosis patient after 72 hrs by Sensititre YeastOne method
Sporothrix schenckii [14] = test: Antifungal activity against Sporothrix schenckii P20825 isolate from cutaneous-lymphatic sporotrichosis patient after 72 hrs by Sensititre YeastOne method
Sporothrix schenckii [15] = test: Antifungal activity against Sporothrix schenckii PGAC0016 isolate from cutaneous-lymphatic sporotrichosis patient after 72 hrs by Sensititre YeastOne method
Candida parapsilosis [16] = test: Antifungal activity against Candida parapsilosis ATCC 22019 […] after 72 hrs by Sensititre YeastOne method; conditions: Lodderomyces parapsilosis, ATCC 22019, 72 h
Sporothrix schenckii [17] = test: Antifungal activity against Sporothrix schenckii PSSA81 isolate from cutaneous-lymphatic sporotrichosis patient after 72 hrs by Sensititre YeastOne method
Sporothrix schenckii [18] = test: Antifungal activity against Sporothrix schenckii P14954 isolate from cutaneous-lymphatic sporotrichosis patient after 72 hrs by Sensititre YeastOne method
Pichia kudriavzevii [19] = test: Antifungal activity against Candida krusei ATCC 6258 […] after 72 hrs by Sensititre YeastOne method; conditions: ATCC 6258, 72 h
Sporothrix schenckii [20] = test: Antifungal activity against Sporothrix schenckii PSCC1 isolate from cutaneous-lymphatic sporotrichosis patient after 72 hrs by Sensititre YeastOne method
Sporothrix schenckii [21] = test: Antifungal activity against Sporothrix schenckii P26187 isolate from cutaneous-lymphatic sporotrichosis patient after 72 hrs by Sensititre YeastOne method
Sporothrix schenckii [22] = test: Antifungal activity against Sporothrix schenckii isolate from cutaneous-lymphatic sporotrichosis patient after 72 hrs by Sensititre YeastOne method
Sporothrix schenckii [23] = test: Antifungal activity against Sporothrix schenckii P26187 isolate from cutaneous-lymphatic sporotrichosis patient after 72 hrs by ATB Fungus 2 method
Sporothrix schenckii [24] = test: Antifungal activity against Sporothrix schenckii P30019 isolate from cutaneous-lymphatic sporotrichosis patient after 72 hrs by ATB Fungus 2 method
Sporothrix schenckii [25] = test: Antifungal activity against Sporothrix schenckii P25013 isolate from cutaneous-lymphatic sporotrichosis patient after 72 hrs by ATB Fungus 2 method
Candida parapsilosis [26] = test: Antifungal activity against Candida parapsilosis ATCC 22019 […] after 72 hrs by ATB Fungus 2 method; conditions: Lodderomyces parapsilosis, ATCC 22019, 72 h
Sporothrix schenckii [27] = test: Antifungal activity against Sporothrix schenckii PGAC0016 isolate from cutaneous-lymphatic sporotrichosis patient after 72 hrs by ATB Fungus 2 method
Sporothrix schenckii [28] = test: Antifungal activity against Sporothrix schenckii P3287 isolate from cutaneous-lymphatic sporotrichosis patient after 72 hrs by ATB Fungus 2 method
Sporothrix schenckii [29] = test: Antifungal activity against Sporothrix schenckii PJRC002 isolate from cutaneous-lymphatic sporotrichosis patient after 72 hrs by ATB Fungus 2 method
Sporothrix schenckii [30] = test: Antifungal activity against Sporothrix schenckii P24255 isolate from cutaneous-lymphatic sporotrichosis patient after 72 hrs by ATB Fungus 2 method
Sporothrix schenckii [31] = test: Antifungal activity against Sporothrix schenckii MRSS4 isolate from cutaneous-lymphatic sporotrichosis patient after 72 hrs by ATB Fungus 2 method
Sporothrix schenckii [32] = test: Antifungal activity against Sporothrix schenckii P14954 isolate from cutaneous-lymphatic sporotrichosis patient after 72 hrs by ATB Fungus 2 method
Sporothrix schenckii [33] = test: Antifungal activity against Sporothrix schenckii P14036 isolate from cutaneous-lymphatic sporotrichosis patient after 72 hrs by ATB Fungus 2 method
Sporothrix schenckii [34] = test: Antifungal activity against Sporothrix schenckii isolate from cutaneous-lymphatic sporotrichosis patient after 72 hrs by modified NCCLS M38-A method
Pichia kudriavzevii [35] = test: Antifungal activity against Candida krusei ATCC 6258 […] after 72 hrs by ATB Fungus 2 method; conditions: ATCC 6258, 72 h
Sporothrix schenckii [36] = test: Antifungal activity against Sporothrix schenckii isolate from cutaneous-lymphatic sporotrichosis patient after 72 hrs by ATB Fungus 2 method
Sporothrix schenckii [37] = test: Antifungal activity against Sporothrix schenckii SSA29 isolate from cutaneous-lymphatic sporotrichosis patient after 72 hrs by ATB Fungus 2 method
Sporothrix schenckii [38] = test: Antifungal activity against Sporothrix schenckii P30915 isolate from cutaneous-lymphatic sporotrichosis patient after 72 hrs by ATB Fungus 2 method
Sporothrix schenckii [39] = test: Antifungal activity against Sporothrix schenckii P0019 isolate from cutaneous-lymphatic sporotrichosis patient after 72 hrs by ATB Fungus 2 method
Sporothrix schenckii [40] = test: Antifungal activity against Sporothrix schenckii P20825 isolate from cutaneous-lymphatic sporotrichosis patient after 72 hrs by ATB Fungus 2 method
Candida parapsilosis [41] = test: Antifungal activity against Candida parapsilosis ATCC 22019 […] after 72 hrs by modified NCCLS M38-A method; conditions: Lodderomyces parapsilosis, ATCC 22019, 72 h
Sporothrix schenckii [42] = test: Antifungal activity against Sporothrix schenckii P10012 isolate from cutaneous-lymphatic sporotrichosis patient after 72 hrs by ATB Fungus 2 method
Sporothrix schenckii [43] = test: Antifungal activity against Sporothrix schenckii P24223 isolate from cutaneous-lymphatic sporotrichosis patient after 72 hrs by ATB Fungus 2 method
Sporothrix schenckii [44] = test: Antifungal activity against Sporothrix schenckii PSCC1 isolate from cutaneous-lymphatic sporotrichosis patient after 72 hrs by ATB Fungus 2 method
Sporothrix schenckii [45] = test: Antifungal activity against Sporothrix schenckii P1621 isolate from cutaneous-lymphatic sporotrichosis patient after 72 hrs by ATB Fungus 2 method
Pichia kudriavzevii [46] = test: Antifungal activity against Candida krusei ATCC 6258 […] after 72 hrs by modified NCCLS M38-A method; conditions: ATCC 6258, 72 h
Sporothrix schenckii [47] = test: Antifungal activity against Sporothrix schenckii P30019 isolate from cutaneous-lymphatic sporotrichosis patient after 72 hrs by modified NCCLS M38-A method

CC(=O)N1CCN(c2ccc(OCC3COC(Cn4ccnc4)(c4ccc(Cl)cc4Cl)O3)cc2)CC1 (configuration not stated) [KETOCONAZOLE]
0.125 µg/mL: MIC (Sporothrix schenckii [1]) | MIC (Sporothrix schenckii [7]) | MIC (Sporothrix schenckii [11]) | MIC (Sporothrix schenckii [12]) | MIC (Sporothrix schenckii [14]) | MIC (Sporothrix schenckii [15]) | MIC (Candida parapsilosis [16]) | MIC (Sporothrix schenckii [20])
0.5 µg/mL: MIC (Sporothrix schenckii [4]) | MIC (Sporothrix schenckii [8]) | MIC (Sporothrix schenckii [10]) | MIC90 (Sporothrix schenckii [22])
1 µg/mL: MIC (Pichia kudriavzevii [19])
0.06 µg/mL: MIC (Sporothrix schenckii [3]) | MIC (Sporothrix schenckii [5]) | MIC (Sporothrix schenckii [17])
0.25 µg/mL: MIC (Sporothrix schenckii [2]) | MIC (Sporothrix schenckii [6]) | MIC (Sporothrix schenckii [9]) | MIC (Sporothrix schenckii [13]) | MIC (Sporothrix schenckii [18]) | MIC (Sporothrix schenckii [21]) | MIC50 (Sporothrix schenckii [22])

Nc1nc(=O)[nH]cc1F [FLUCYTOSINE]
64 µg/mL: MIC (Sporothrix schenckii [23]) | MIC (Sporothrix schenckii [24]) | MIC (Sporothrix schenckii [25]) | MIC (Sporothrix schenckii [29]) | MIC (Sporothrix schenckii [30]) | MIC (Sporothrix schenckii [33]) | MIC50 (Sporothrix schenckii [36]) | MIC (Sporothrix schenckii [42])
4 µg/mL: MIC (Sporothrix schenckii [47])
16 µg/mL: MIC (Sporothrix schenckii [2]) | MIC (Sporothrix schenckii [4]) | MIC (Sporothrix schenckii [5]) | MIC (Sporothrix schenckii [7]) | MIC (Sporothrix schenckii [8]) | MIC (Sporothrix schenckii [10]) | MIC (Sporothrix schenckii [13]) | MIC (Sporothrix schenckii [15]) | MIC (Pichia kudriavzevii [46]) | MIC50 (Sporothrix schenckii [22])
1 µg/mL: MIC (Candida parapsilosis [26]) | MIC (Sporothrix schenckii [12]) | MIC (Candida parapsilosis [16]) | MIC (Sporothrix schenckii [17])
32 µg/mL: MIC (Sporothrix schenckii [3]) | MIC (Pichia kudriavzevii [35]) | MIC (Sporothrix schenckii [11]) | MIC (Sporothrix schenckii [37]) | MIC (Sporothrix schenckii [40]) | MIC (Sporothrix schenckii [18]) | MIC (Pichia kudriavzevii [19]) | MIC90 (Sporothrix schenckii [22])
0.5 µg/mL: MIC (Candida parapsilosis [41])
> 64 µg/mL: MIC (Sporothrix schenckii [27]) | MIC (Sporothrix schenckii [28]) | MIC (Sporothrix schenckii [31]) | MIC (Sporothrix schenckii [32]) | MIC50 (Sporothrix schenckii [34]) | MIC90 (Sporothrix schenckii [36]) | MIC (Sporothrix schenckii [38]) | MIC (Sporothrix schenckii [39]) | MIC (Sporothrix schenckii [43]) | MIC (Sporothrix schenckii [44]) | MIC (Sporothrix schenckii [20])
8 µg/mL: MIC (Sporothrix schenckii [1]) | MIC (Sporothrix schenckii [6]) | MIC (Sporothrix schenckii [9]) | MIC (Sporothrix schenckii [14]) | MIC (Sporothrix schenckii [45]) | MIC (Sporothrix schenckii [21])
